Measurements: patent US20260256792A1, “TREATMENT OF CHRONIC SPONTANEOUS URTICARIA BY ADMINISTERING (R)-2-[3-[4-AMINO-3-(2-FLUORO-4-PHENOXY-PHENYL)PYRAZOLO[3,4-D]PYRIMIDIN-1-YL]PIPERIDINE-1-CARBONYL]-4-METHYL-4-[4-(OXETAN-3-YL)PIPERAZIN-1-YL]PENT-2-ENENITRILE” (priority 2023, published 2026)

System: moderate-to-severe chronic spontaneous urticaria (CSU)
Assay: Phase 2 CSU study: itch severity score over 7 days (ISS7)
Format: in vivo, human
Settings: for Non-responder n (%) (ISS7 reduction of 5 points or more) / OR for rilzabrutinib vs. placebo (ISS7 reduction of 5 points or more) / Responder n (%) (ISS7 reduction of 5 points or more) / Imputed non-responder n (%) (ISS7 reduction of 5 points or more) / RRD (%) for rilzabrutinib vs. placebo (ISS7 reduction of 5 points or more): Omalizumab-Naïve Population; for ISS7 Post-baseline Mean (SD): Omalizumab-Naïve, outlier removed
From the text: The study comprises a 12 week, randomized, double-blind, placebo-controlled, multi-center, dose-ranging efficacy and safety phase, followed by a 40 week open label extension (OLE) phase (see FIG. 1). The study consists of three phases and an optional OLE phase. […] Clinically, CSU is characterized by the spontaneous and recurrent appearance of pruritic hives. The proposed primary endpoints were the UAS7 at Week 12 in EU and EU reference countries and the ISS7 in the US. Regardless of where a participant was from, all assessments were the same. The UAS7 score is a composite score containing both the HSS7 and the ISS7. This allowed a global assessment of the two key components of urticaria: hives and itch. […] The UAS is a validated PRO measure. […] The daily UAS scores range from 0 to 6 point/day. […] Patients were to complete the UAS using the e-diary. […] The following secondary endpoints were to be analyzed using the same approach as for the primary endpoint: • Change from baseline in UAS7 at Week 4 • Change from baseline in UAS7 at Week 12 (for US and US reference countries) • Change from baseline in ISS7 at Week 12 (except US and US reference countries) • Change from baseline in HSS7 at Week 12

## CC(C)(C=C(C#N)C(=O)N1CCC[C@@H](n2nc(-c3ccc(Oc4ccccc4)cc3F)c3c(N)ncnc32)C1)N1CCN(C2COC2)CC1 [rilzabrutinib, (R)-2-[3-[4-amino-3-(2-fluoro-4-phenoxy-phenyl)pyrazolo[3,4-d]pyrimidin-1-yl]piperidine-1-carbonyl]-4-methyl-4-[4-(oxetan-3-yl)piperazin-1-yl]pent-2-enenitrile]
400 mg QPM, Week 10
  Non-responder n (%) (ISS7 reduction of 5 points or more): 14 (37.8) n (%)
  OR for rilzabrutinib vs. placebo (ISS7 reduction of 5 points or more): 1.614
  Responder n (%) (ISS7 reduction of 5 points or more): 23 (62.2) n (%)
  ISS7 Post-baseline Mean (SD): 10.43 (5.30)
400 mg QPM, Week 11
  Imputed non-responder n (%) (ISS7 reduction of 5 points or more): 7 (18.9) n (%)
  Non-responder n (%) (ISS7 reduction of 5 points or more): 17 (45.9) n (%)
  OR for rilzabrutinib vs. placebo (ISS7 reduction of 5 points or more): 0.932
  RRD (%) for rilzabrutinib vs. placebo (ISS7 reduction of 5 points or more): −1.7%
  Responder n (%) (ISS7 reduction of 5 points or more): 20 (54.1) n (%)
  ISS7 Post-baseline Mean (SD): 11.03 (5.55)
400 mg QPM, Week 12
  Imputed non-responder n (%) (ISS7 reduction of 5 points or more): 10 (27.0) n (%)
  Non-responder n (%) (ISS7 reduction of 5 points or more): 21 (56.8) n (%)
  OR for rilzabrutinib vs. placebo (ISS7 reduction of 5 points or more): 0.851
  RRD (%) for rilzabrutinib vs. placebo (ISS7 reduction of 5 points or more): −4.2%
  Responder n (%) (ISS7 reduction of 5 points or more): 16 (43.2) n (%)
400 mg TID, Week 1
  Imputed non-responder n (%) (ISS7 reduction of 5 points or more): 0 n (%)
  Non-responder n (%) (ISS7 reduction of 5 points or more): 13 (37.1) n (%)
  OR for rilzabrutinib vs. placebo (ISS7 reduction of 5 points or more): 5.851
  RRD (%) for rilzabrutinib vs. placebo (ISS7 reduction of 5 points or more): 40.1%
  Responder n (%) (ISS7 reduction of 5 points or more): 22 (62.9) n (%)
400 mg TID, Week 2
  Imputed non-responder n (%) (ISS7 reduction of 5 points or more): 0 n (%)
  Non-responder n (%) (ISS7 reduction of 5 points or more): 12 (34.3) n (%)
  OR for rilzabrutinib vs. placebo (ISS7 reduction of 5 points or more): 4.876
  RRD (%) for rilzabrutinib vs. placebo (ISS7 reduction of 5 points or more): 36.4%
  Responder n (%) (ISS7 reduction of 5 points or more): 23 (65.7) n (%)
400 mg TID, Week 3
  Imputed non-responder n (%) (ISS7 reduction of 5 points or more): 0 n (%)
  Non-responder n (%) (ISS7 reduction of 5 points or more): 12 (34.3) n (%)
  OR for rilzabrutinib vs. placebo (ISS7 reduction of 5 points or more): 3.637
  RRD (%) for rilzabrutinib vs. placebo (ISS7 reduction of 5 points or more): 34.3%
  Responder n (%) (ISS7 reduction of 5 points or more): 23 (65.7) n (%)
400 mg TID, Week 4
  Imputed non-responder n (%) (ISS7 reduction of 5 points or more): 3 (8.6) n (%)
  Non-responder n (%) (ISS7 reduction of 5 points or more): 11 (31.4) n (%)
  OR for rilzabrutinib vs. placebo (ISS7 reduction of 5 points or more): 2.777
  RRD (%) for rilzabrutinib vs. placebo (ISS7 reduction of 5 points or more): 25.1%
  Responder n (%) (ISS7 reduction of 5 points or more): 24 (68.6) n (%)
400 mg TID, Week 5
  Imputed non-responder n (%) (ISS7 reduction of 5 points or more): 2 (5.7) n (%)
  Non-responder n (%) (ISS7 reduction of 5 points or more): 10 (28.6) n (%)
  OR for rilzabrutinib vs. placebo (ISS7 reduction of 5 points or more): 2.535
  RRD (%) for rilzabrutinib vs. placebo (ISS7 reduction of 5 points or more): 22.7%
  Responder n (%) (ISS7 reduction of 5 points or more): 25 (71.4) n (%)
400 mg TID, Week 6
  Imputed non-responder n (%) (ISS7 reduction of 5 points or more): 4 (11.4) n (%)
  Non-responder n (%) (ISS7 reduction of 5 points or more): 15 (42.9) n (%)
  OR for rilzabrutinib vs. placebo (ISS7 reduction of 5 points or more): 1.563
  Responder n (%) (ISS7 reduction of 5 points or more): 20 (57.1) n (%)
400 mg TID, Week 7
  Imputed non-responder n (%) (ISS7 reduction of 5 points or more): 5 (14.3) n (%)
  Non-responder n (%) (ISS7 reduction of 5 points or more): 11 (31.4) n (%)
  OR for rilzabrutinib vs. placebo (ISS7 reduction of 5 points or more): 2.715
  RRD (%) for rilzabrutinib vs. placebo (ISS7 reduction of 5 points or more): 23.5%
  Responder n (%) (ISS7 reduction of 5 points or more): 24 (68.6) n (%)
400 mg TID, Week 8
  Imputed non-responder n (%) (ISS7 reduction of 5 points or more): 7 (20.0) n (%)
  Non-responder n (%) (ISS7 reduction of 5 points or more): 12 (34.3) n (%)
  OR for rilzabrutinib vs. placebo (ISS7 reduction of 5 points or more): 1.891
  RRD (%) for rilzabrutinib vs. placebo (ISS7 reduction of 5 points or more): 16.1%
  Responder n (%) (ISS7 reduction of 5 points or more): 23 (65.7) n (%)
400 mg TID, Week 9
  Imputed non-responder n (%) (ISS7 reduction of 5 points or more): 6 (17.1) n (%)
  Non-responder n (%) (ISS7 reduction of 5 points or more): 11 (31.4) n (%)
  OR for rilzabrutinib vs. placebo (ISS7 reduction of 5 points or more): 2.956
  RRD (%) for rilzabrutinib vs. placebo (ISS7 reduction of 5 points or more): 25.1%
  Responder n (%) (ISS7 reduction of 5 points or more): 24 (68.6) n (%)
400 mg TID, Week 10
  Imputed non-responder n (%) (ISS7 reduction of 5 points or more): 5 (14.3) n (%)
  Non-responder n (%) (ISS7 reduction of 5 points or more): 12 (34.3) n (%)
  OR for rilzabrutinib vs. placebo (ISS7 reduction of 5 points or more): 1.910
  RRD (%) for rilzabrutinib vs. placebo (ISS7 reduction of 5 points or more): 15.5%
  Responder n (%) (ISS7 reduction of 5 points or more): 23 (65.7) n (%)
400 mg TID, Week 11
  Imputed non-responder n (%) (ISS7 reduction of 5 points or more): 4 (11.4) n (%)
  Non-responder n (%) (ISS7 reduction of 5 points or more): 10 (28.6) n (%)
  OR for rilzabrutinib vs. placebo (ISS7 reduction of 5 points or more): 1.951
  RRD (%) for rilzabrutinib vs. placebo (ISS7 reduction of 5 points or more): 15.5%
  Responder n (%) (ISS7 reduction of 5 points or more): 25 (71.4) n (%)
400 mg TID, Week 12
  Imputed non-responder n (%) (ISS7 reduction of 5 points or more): 8 (22.9) n (%)
  Non-responder n (%) (ISS7 reduction of 5 points or more): 15 (42.9) n (%)
  OR for rilzabrutinib vs. placebo (ISS7 reduction of 5 points or more): 1.469
  Responder n (%) (ISS7 reduction of 5 points or more): 20 (57.1) n (%)
400 mg BID, Week 2
  ISS7 Post-baseline Mean (SD): 10.32 (5.64)
400 mg BID, Week 3
  ISS7 Post-baseline Mean (SD): 9.16 (6.09)
400 mg BID, Week 4
  ISS7 Post-baseline Mean (SD): 8.32 (6.02)
400 mg BID, Week 5
  ISS7 Post-baseline Mean (SD): 8.88 (6.81)
400 mg BID, Week 6
  ISS7 Post-baseline Mean (SD): 8.85 (6.40)
400 mg BID, Week 7
  ISS7 Post-baseline Mean (SD): 8.21 (6.16)
400 mg BID, Week 8
  ISS7 Post-baseline Mean (SD): 7.33 (6.55)
400 mg BID, Week 9
  ISS7 Post-baseline Mean (SD): 7.63 (7.11)
400 mg BID, Week 10
  ISS7 Post-baseline Mean (SD): 8.17 (7.29)
400 mg BID, Week 11
  ISS7 Post-baseline Mean (SD): 7.93 (6.94)
400 mg BID, Week 12
  ISS7 Post-baseline Mean (SD): 8.09 (6.95)
400 mg QPM, Week 1
  ISS7 Post-baseline Mean (SD): 13.08 (4.52)
400 mg QPM, Week 3
  ISS7 Post-baseline Mean (SD): 11.60 (4.68)
400 mg QPM, Week 4
  ISS7 Post-baseline Mean (SD): 11.39 (4.79)
400 mg QPM, Week 5
  ISS7 Post-baseline Mean (SD): 11.00 (4.68)
400 mg QPM, Week 6
  ISS7 Post-baseline Mean (SD): 10.27 (5.26)
400 mg QPM, Week 7
  ISS7 Post-baseline Mean (SD): 10.68 (5.34)
400 mg QPM, Week 8
  ISS7 Post-baseline Mean (SD): 10.72 (5.26)
